Results: patent US9387225B2, “Gold-platinum based bi-metallic nanocrystal suspensions, electrochemical manufacturing processes therefor and uses for the same” (GR INTELLECTUAL RESERVE, LLC, a Nevada LLC, priority 2011, dated 2016)
Where two headings read alike, the source gives them in different places.

Key:
HCT116 tumors [1] = test: Xenograft cancer study in mice, HCT116, oral administration (Example 20d); assay type: in vivo, mouse
Text: (§1) Female Balb/C, immunologically deficient recipient mice (6-8 weeks old) had tumors implanted therein. The Balb/C donor mice were used to grow HCT116 tumors, which tumors were excised therefrom and subsequently sectioned into small fragments about 2 mm^3 in size. The Balb/C recipient mice were given brief general anesthesia and then one HCT116 2 mm^3 tumor fragment from the donor mice was implanted into each of the left and right flank of the recipient mice using a trocar needle. Once the tumors in the recipient mice had reached a measurable size of about 4×4 mm, as measured by calipers placed against each mouse skin, the recipient mice were randomly placed into treatment groups, 8 per group and the oral treatment was started. 8 mice were in the positive control group (“Cisplatin”) and 8 mice were in the negative control group and received only water (“Control”). Treatment was given exclusively via the drinking bottle shared between the mice in each Treatment group. Cisplatin was given by intraperitoneal injection on day 0. Tumor size was assessed five times per week using a pair of calipers and mouse weight was also obtained by a scale, such measuring occurring until the mouse died (or was removed from the study) or the study was terminated as scheduled.
• Species: Mice • Strain: Balb/C immunodeficient mice • Source: Harlan • Gender and number: Female, 36 • Age: About 6-8 weeks old at the start of the study. • Identification: Each mouse was given a unique identity number. • Animal husbandry: On receipt, all animals were examined for external signs of ill-health and all unhealthy animals were excluded from further evaluation. Animals were housed in groups of three under specific pathogen free (spf) conditions, in a thermostatically monitored room (22±4° C.) in an animal unit. Animals were equilibrated under standard animal house conditions for at least 72 hours prior to use. The health status of the animals was monitored throughout this period and the suitability of each animal for experimental use was assessed prior to study start. • Housing Animals were housed in groups of 3 per cage in a controlled room, to ensure correct temperature, humidity and 12 hour light/dark cycle for the duration of the study. • Diet: Irradiated pellet diet and water was available ad libitum throughout the holding, acclimatisation and post-dose periods. Compound and Reagents • HCT 116 cell line (ATCC CCL-247). • Phosphate buffered saline (“PBS”). • Test compounds: Au—Pt bi-metallic nanocrystal suspensions. • Positive control compound: cisplatin. • Negative control compound: drinking water. Treatment Groups and Dosages • Negative Control Group 1: Days 0-21, given normal drinking water. • Positive Control Group 2: Days 0-21, given normal drinking water; and given a one-time cisplatin dose of 8 mg/kg by intraperitoneal injection (“IP”) on day 0. • Treatment Group 3-5: Days 0-21, given test compounds as their drinking water. Protocol A: Preparation and Growth of Donor Tumors
(§2) a.) Preparation of Tumor Cells • 1. Cells were grown in complete medium and all contaminants were excluded. • 2. When the cells were approximately 70-80% confluent, then approximately 3-4 hours before harvesting, the old cell growth medium was replaced with fresh cell growth medium to remove any dead and/or detached cells. • 3. […] The cells were then placed on a glass slide in the traditional manner and were counted using a hemocytometer. • 5. […]

H460 tumors = test: Xenograft cancer study in mice, H460, oral administration (Example 20e); assay type: in vivo, mouse
Text: Female Balb/C, immunologically deficient recipient mice (6-8 weeks old) had tumors implanted therein. The Balb/C donor mice were used to grow H460 tumors, which tumors were excised therefrom and subsequently sectioned into small fragments about 2 mm^3 in size. The Balb/C recipient mice were given brief general anesthesia and then one H4602 mm^3 tumor fragment from the donor mice was implanted into each of the left and right flank of the recipient mice using a trocar needle. Once the tumors in the recipient mice had reached a measurable size of about 4×4 mm, as measured by calipers placed against each mouse skin, the recipient mice were randomly placed into treatment groups, 8 per group and the oral treatment was started. 8 mice were in the positive control group (“Cisplatin”) and 8 mice were in the negative control group and received only water (“Control”). Treatment was given exclusively via the drinking bottle shared between the mice in each Treatment group. Cisplatin was given by intraperitoneal injection on day 0. Tumor size was assessed five times per week using a pair of calipers and mouse weight was also obtained by a scale, such measuring occurring until the mouse died (or was removed from the study) or the study was terminated as scheduled.
• Species: Mice • Strain: Balb/C immunodeficient mice • Source: Harlan • Gender and number: Female, 36 • Age: About 6-8 weeks old at the start of the study. • Identification: Each mouse was given a unique identity number. • Animal husbandry: On receipt, all animals were examined for external signs of ill-health and all unhealthy animals were excluded from further evaluation. Animals were housed in groups of three under specific pathogen free (spf) conditions, in a thermostatically monitored room (22±4° C.) in an animal unit. Animals were equilibrated under standard animal house conditions for at least 72 hours prior to use. The health status of the animals was monitored throughout this period and the suitability of each animal for experimental use was assessed prior to study start. • Housing Animals were housed in groups of 3 per cage in a controlled room, to ensure correct temperature, humidity and 12 hour light/dark cycle for the duration of the study. • Diet: Irradiated pellet diet and water was available ad libitum throughout the holding, acclimatisation and post-dose periods. Compound and Reagents • H460cell line (ATCC HTB-177). • Phosphate buffered saline (“PBS”). • Test compounds: Au—Pt bi-metallic nanocrystal suspensions. • Positive control compound: cisplatin. • Negative control compound: drinking water. Treatment Groups and Dosages • Negative Control Group 1: Days 0-21, given normal drinking water. • Positive Control Group 2: Days 0-21, given normal drinking water; and given a one-time cisplatin dose of 8 mg/kg by intraperitoneal injection (“IP”) on day 0. • Treatment Group 3-5: Days 0-21, given test compounds as their drinking water. Protocol A: Preparation and Growth of Donor Tumors
as §2

HCT116 tumors [2] = assay type: in vivo
Text: as §1
• Species: Mice • Strain: Balb/C immunodeficient mice • Source: Harlan • Gender and number: Female, 36 • Age: About 6-8 weeks old at the start of the study. • Identification: Each mouse was given a unique identity number. • Animal husbandry: On receipt, all animals were examined for external signs of ill-health and all unhealthy animals were excluded from further evaluation. Animals were housed in groups of three under specific pathogen free (spf) conditions, in a thermostatically monitored room (22±4° C.) in an animal unit. Animals were equilibrated under standard animal house conditions for at least 72 hours prior to use. The health status of the animals was monitored throughout this period and the suitability of each animal for experimental use was assessed prior to study start. • Housing Animals were housed in groups of 3 per cage in a controlled room, to ensure correct temperature, humidity and 12 hour light/dark cycle for the duration of the study. • Diet: Irradiated pellet diet and water was available ad libitum throughout the holding, acclimatisation and post-dose periods. Compound and Reagents • HCT 116 cell line (ATCC CCL-247). • Phosphate buffered saline (“PBS”). • Test compounds: gold nanocrystal suspension NE-28-10X (NE-28 produced equivalent to • NE10214 in Example 1) Concentrated 10×. • Positive control compound: cisplatin. • Negative control compound: drinking water. Treatment Groups and Dosages • Negative Control Group 1: Days 0-21, given normal drinking water. • Positive Control Group 2: Days 0-21, given normal drinking water; and given a one-time cisplatin dose of 8 mg/kg by intraperitoneal injection (“IP”) on day 0. • Treatment Group 3: Days 0-21, given test compounds as their drinking water. Protocol A: Preparation and Growth of Donor Tumors
as §2

[3] = HCT116 xenograft, oral, versus Group 1 (Control)
[4] = tumor doubling time, HCT116 xenograft, oral
[5] = tumor doubling time, H460 xenograft, oral

With `N.N.[Cl][Pt][Cl]` [cisplatin] the “Growth Delay” value (HCT116 tumors [1]; [3]) was 1.7 days, the “Maximum % Weight Loss” value (HCT116 tumors [1]; mouse, in vivo, po) was 5% and the “Maximum % Weight Loss, day (d) of maximum” value (shortened to “Maximum % Weight Loss, day”) (HCT116 tumors [1]; mouse, in vivo, po) was 7 days. The “Mean Time to RTV2” value (HCT116 tumors [1]; [4]) was 5.2 days, the “Median Time to RTV2” value (HCT116 tumors [1]; [4]) was 5.2 days and the “Growth Delay” value (H460 tumors; H460 xenograft, oral, versus Group 1 (Control)) was 2.5 days. The “Maximum % Weight Loss” value (H460 tumors; mouse, in vivo, po) was 6%, the “Maximum % Weight Loss, day” value (H460 tumors; mouse, in vivo, po) was 3 days and the “Mean Time to RTV2” value (H460 tumors; [5]) was 5.0 days. For the same compound, the “Median Time to RTV2” value (H460 tumors; [5]) was 5.0 days, the “Growth Delay” value (HCT116 tumors [2]; [3]) was 0.9 days and the “Maximum % Weight Loss” value (HCT116 tumors [2]; mouse, in vivo, po) was 5%. For the same compound, the “Maximum % Weight Loss, day” value (HCT116 tumors [2]; mouse, in vivo, po) was 2 days, the “Mean Time to RTV2” value (HCT116 tumors [2]; [4]) was 3.9 days and the “Median Time to RTV2” value (HCT116 tumors [2]; [4]) was 3.5 days.
